Test results: patent publication US6310072A (priority 1995, dated 2001)
Entries after “also recorded” stand apart in the source; their conditions may differ. Like-named read-outs stand apart in the source and are kept apart here.

Columns and labels:
[1] = tested on: κ-opioid receptors; conditions: in vivo; cited from earlier work
[2] = tested on: Dark Agouti rats; conditions: rat, in vivo, sc
[3] = tested on: humans; conditions: naive human adult, every four hours, cited from earlier work
[4] = tested on: Dark Agouti rats; format: in vivo, rat (Dark Agouti); conditions: any time
[5] = tested on: Dark Agouti rats; parameters: species or system rat (Dark Agouti); conditions: rat, in vivo, sc
[6] = tested on: surgical patients; conditions: i.v. alone; cited from earlier work
[7] = tested on: Sprague-Dawley rats; format: in vivo, rat (Sprague-Dawley)
[8] = tested on: Sprague-Dawley rats; conditions: cited from earlier work; for ED50 / Time to maximum antinociception: i.c.v.
[9] = tested on: Sprague-Dawley rats; format: in vivo, rat (Sprague-Dawley); remark: listed apart in the source
[10] = cited from earlier work
[11] = tested on: Sprague-Dawley rats
[12] = tested on: fetal dorsal root ganglion sensory neurones; conditions: cited from earlier work
[13] = tested on: δ- relative to κ-opioid receptors; conditions: cited from earlier work
[14] = tested on: δ-opioid receptors relative to μ-opioid receptors; conditions: cited from earlier work
[15] = target: κ2a-2 opioid receptor; conditions: κ2a-2 subtype; cited from earlier work
[16] = tested on: Dark Agouti rats; conditions: s.c. oxycodone; cited from earlier work
[17] = tested on: rats; conditions: systemic oxycodone; cited from earlier work
[18] = tested on: surgical patients; format: in vivo, human; conditions: i.v. morphine 2.0 mg plus oxycodone 2.0 mg; oxycodone 10 mg alone

CCC12CCN(CC3(O)CC3)C(Cc3ccc(O)cc31)C2(C)C (centres unmarked) [bremazocine]
Antinociception profile [1]: antinociception characterised by a rapid onset of action and a single antinociceptive phase

CCC12CCN(CC3CC3)C(C(=O)c3ccc(O)cc31)C2C (centres unmarked) [ethylketazocine]
Antinociception profile [1]: antinociception characterised by a rapid onset of action and a single antinociceptive phase

CN1CC[C@]23c4c5ccc(O)c4O[C@H]2[C@@H](O)C=C[C@H]3[C@H]1C5 [morphine]
Failure of eye reflex test [2]: approximately 40 % of the time
Failure of righting reflex test [2]: approximately 33 % of the time
Lower threshold initial dose producing analgesia ([3]; intravenous): 4 to 5 mg
Lower threshold initial dose producing analgesia ([3]; oral): 30 mg
Antinociception (% MPE) ([4]; i.p. morphine 621 nmol alone): ≤ 50 % MPE
Time of onset of antinociception (%MPE≥30%) [5]: 22 min
Dose used for intubation [6]: approximately 10 mg
Degree of antinociception (%MPE) ([7]; i.c.v. morphine 15 nmol alone, any time in 3 h): ≤ 20%
ED50 [8]: 34 nmol

C=CCN1CC[C@]23c4c5ccc(O)c4O[C@H]2/C(=N/N=C2\CC[C@@]4(O)[C@H]6Cc7ccc(O)c8c7[C@@]4(CCN6CC=C)[C@H]2O8)CC[C@@]3(O)[C@H]1C5 [naloxonazine]
Duration of action of oxycodone after antagonist ([9]; rat, in vivo): 60 min
Effect on morphine antinociception ([9]; rat, in vivo): completely attenuated; also recorded: attenuated the antinociceptive effects
Effect on oxycodone antinociception ([9]; rat, in vivo): minor effect on the observed antinocicepfion; also recorded: magnitude of antinociception did not appear to be significantly reduced during the first 15 min; also recorded: almost no effect; also recorded: did not attenuate
Reduction of %MPE values versus untreated rats ([9]; rat, in vivo): 5-10%
Effect on DAMGO antinociception ([10]; naloxonazine): antagonise the antinociceptive effects
Effect on DPDPE antinociception ([10]; naloxonazine): did not reduce the antinociception
Effect on morphine antinociception ([10]; naloxonazine): antagonise the antinociceptive effects
Excitatory behaviour ([11]; rat, in vivo): minor excitatory behaviour (shaking and teeth chattering)
Sensitivity to external stimuli versus untreated rats ([11]; rat, in vivo): more sensitive to external stimuli (touch and sound)

C=CCN1CC[C@]23c4c5ccc(O)c4O[C@H]2C(=O)CC[C@@]3(O)[C@H]1C5 [naloxone]
Action potential duration (APD) [12]: marked shortening of the action potential duration (APD)
Reversal of oxycodone/morphine antinociception by naloxone ([8]; rat, in vivo): completely reversible; also recorded: completely attenuated

O=C1CC[C@@]2(O)[C@H]3Cc4ccc(O)c5c4[C@@]2(CCN3CC2CC2)[C@H]1O5 [naltrexone]
Action potential duration (APD) [12]: marked shortening of the action potential duration (APD)

Oc1ccc2c3c1O[C@H]1c4[nH]c5ccccc5c4C[C@@]4(O)[C@@H](C2)N(CC2CC2)CC[C@]314 [naltrindole]
%MPE values versus pre-dosing baseline ([9]; rat, in vivo): not significantly different (p>0.05) from pre-dosing baseline values
Effect on DPDPE antinociception ([9]; rat, in vivo): significantly attenuated (p<0.05); also recorded: completely attenuated
Effect on oxycodone antinociception ([9]; rat, in vivo): did not significantly attenuate (p>0.05); also recorded: failed to attenuate
Selectivity for δ- relative to κ-opioid receptors [13]: 10,000 fold
Selectivity for δ- relative to μ-opioid receptors [14]: 100 fold

Oc1ccc2c3c1O[C@H]1c4[nH]c5c(c4C[C@@]4(O)[C@@H](C2)N(CC2CC2)CC[C@]314)C[C@@]1(O)[C@H]2Cc3ccc(O)c4c3[C@@]1(CCN2CC1CC1)[C@H]5O4 [nor-BNI, nor-binaltorphimine]
Effect on U69,593 antinociception ([9]; rat, in vivo): complete attenuation of the antinociceptive effects; also recorded: markedly attenuated
Effect on bremazocine antinociception ([9]; rat, in vivo): complete attenuation of the antinociceptive effects; also recorded: markedly attenuated
Effect on morphine antinociception ([9]; rat, in vivo): not attenuated; also recorded: no effect; also recorded: did not attenuate
Effect on oxycodone antinociception ([9]; rat, in vivo): complete attenuation of the antinociceptive effects; also recorded: markedly attenuated; also recorded: completely attenuated; also recorded: completely attentuated; also recorded: attenuated only by nor-BNI
Effect on U69,593 antinociception ([10]; nor-BNI): antagonize the antinociceptive effects
Effect on bremazocine antinociception ([10]; nor-BNI): antagonize the antinociceptive effects
Ki [15]: 5.9 nM

COc1ccc2c3c1O[C@H]1C(=O)CC[C@@]4(O)[C@@H](C2)N(C)CC[C@]314 [oxycodone]
Time of peak antinociception ([9]; i.c.v. oxycodone 200 nmol): 5 min
Time to return to baseline values ([9]; i.c.v. oxycodone 200 nmol): ≤ 90 min
Antinociception peak (% MPE) ([9]; i.c.v. oxycodone 200 nmol, 5 min): 100 % MPE
Duration of action of oxycodone ([9]; oxycodone 200 nmol i.c.v. alone): 90 min
Failure of eye reflex test [2]: approximately 40 % of the time
Failure of righting reflex test [2]: ~50 % of the time
Loss of landing reflex [2]: no loss of the landing reflex
Loss of righting or landing reflexes [2]: no loss of the righting or landing reflexes
Sedation [2]: markedly sedated compared with control rats
Lower threshold initial dose producing analgesia ([3]; oral): 10 mg
Antinociception (% MPE) ([4]; i.p. oxycodone 571 nmol alone): ≤ 50 % MPE
ED50 oxycodone dose [5]: 0.44 (±0.04) mg
Time of onset of antinociception (%MPE≥30%) [5]: 12 min
Time to maximum antinociception (Tmax) [5]: 20 min
Antinociception [16]: achieved maximum antinociception
Catatonic behaviour [17]: catatonic behaviour observed
Catatonic behaviour ([11]; i.c.v. oxycodone 200 nmol): nor did they exhibit the catatonic behaviour
Spontaneous bladder emptying or incontinence ([11]; i.c.v., oxycodone 200 nmol, morphine 78 nmol): did not exhibit any signs of spontaneous bladder emptying or incontinence
Onset of clinical effect [18]: ~5 min
Dose used for intubation [6]: approximately 10 mg
Duration of antinociception ([7]; i.c.v. equipotent doses administered separately): 90 min
Antinociception ([7]; i.c.v. oxycodone 40 nmol alone): no antinociception was observed; also recorded: most of the %MPE values were negative
Reversal of oxycodone/morphine antinociception by naloxone ([8]; i.c.v. naloxone (55 nmol)): naloxone-reversible antinociceptlon
Time by which antinociception is essentially complete ([8]; i.c.v. oxycodone, post-dosing): ≤ 90 min
ED50 [8]: 78 nmol
Time to maximum antinociception [8]: ≤ 7 min
Time to maximum antinociception ([8]; listed as Oxycodone): 5 to 7 min
